Laboratory results reported in patent US9518041B2, “(+)-5-(3,4-difluorophenyl)-5-[(3-methyl-2-oxopyridin-1(2H)-yl)methyl]imidazolidine-2,4-dione and drug containing same” (KAKEN PHARMACEUTICAL CO., LTD., priority 2013, dated 2016).

Biological target: T1, human MMP-2 (Homo sapiens, UniProt P08253)
T1 construct: purchased Calbiochem 444213
T1 sequence (P08253 110-660): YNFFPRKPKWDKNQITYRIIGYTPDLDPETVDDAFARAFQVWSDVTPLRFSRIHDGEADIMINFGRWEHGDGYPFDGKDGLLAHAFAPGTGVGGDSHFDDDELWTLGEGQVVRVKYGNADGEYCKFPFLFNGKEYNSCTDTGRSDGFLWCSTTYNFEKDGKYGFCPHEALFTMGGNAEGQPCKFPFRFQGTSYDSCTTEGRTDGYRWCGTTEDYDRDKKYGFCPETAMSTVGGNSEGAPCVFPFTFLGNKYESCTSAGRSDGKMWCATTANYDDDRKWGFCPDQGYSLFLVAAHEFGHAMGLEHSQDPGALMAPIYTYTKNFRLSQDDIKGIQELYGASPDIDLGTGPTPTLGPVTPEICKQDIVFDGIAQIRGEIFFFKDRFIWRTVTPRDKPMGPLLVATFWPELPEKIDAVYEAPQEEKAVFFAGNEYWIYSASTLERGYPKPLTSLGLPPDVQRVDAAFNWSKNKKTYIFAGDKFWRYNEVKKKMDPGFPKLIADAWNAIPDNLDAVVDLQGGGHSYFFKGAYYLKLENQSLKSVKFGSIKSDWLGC
Test: MMP-2 inhibition test
Format: biochemical
Conditions: read-out: Inhibitory activity (IC50, nM) MMP-2
Experimental: MMP inhibition tests can be carried out, for example, using a fluorescent synthetic substrate based on the methods described in Bickett et al. (D. Mark Bickett et al., Anal. Biochem., 1993, 212, 58-64) and Nagase et al. (H. Nagase et al., J. Biol. Chem., 1994, 269, 20952-20957). The method for each MMP inhibition test is shown below.
90 μL (5 ng) of human MMP-2 (Calbiochem #444213) was mixed with 10 μL of 10 mM APMA, and activated by reacting at 37° C. for 1 hour. 10 μL of the resultant enzyme solution was diluted to 90 μL with an assay buffer A. The mixture was added to 90 μL of a 20 μM fluorescent substrate (MOCAc((7-methoxycoumarin-4-yl)acetyl)-Pro-Leu-Gly-Leu-A2pr(Dnp)-Ala-Arg-NH2, Peptide Institute Inc., #3163-v) (SEQ ID NO: 3) prepared with an assay buffer B, and reacted at 37° C. for 5 hours. Enzyme activity was then determined by measuring with a fluorescence intensity meter (Labsystems, Fluoroskan Ascent) at an excitation wavelength of 320 nm and a measurement wavelength of 405 nm.
From the enzyme activity in the presence or the absence of the test substance, the inhibition rate was determined, and the 50% inhibitiory concentration (IC50) of the test substance was calculated.

Cc1cccn(CC2(c3ccc(F)c(F)c3)NC(=O)NC2=O)c1=O (single isomer, unassigned; (+)) [(+)-5-(3,4-difluorophenyl)-5-[(3-methyl-2-oxopyridin-1(2H)-yl)methyl]imidazolidine-2,4-dione]
IC50: > 10000 nM
